The text below walks through data of patent publication US10669271B2, “Heterocyclic compounds as immunomodulators” (Incyte Corporation, priority 2018, dated 2020).

Assay [1] deals with PD-L1 aAPC/CHO-K1 cells and Jurkat-PD-1-NFAT effector cells. Kind of assay: Nuclear factor of activated T-cells (NFAT) assay. The class given is cell-based. The note with it: Cricetulus griseus; PD-L1 aAPC/CHO-K1 cells with Jurkat-PD-1-NFAT effector cells, 24 hours. In a few lines:
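PD-L1 aAPC/CHO-K1 cells co-cultured with Jurkat-PD-1-NFAT effector cells in RPMI 1640 with 1% FBS, compound top concentration 2 μM, 0.4% DMSO, 24 h at 37 °C. Bio-Glo luminescence read; fold induction normalized to DMSO wells, maximum induction relative to control compound, EC50 from percent control activity versus log concentration.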

A further assay has as its target PD-1/PD-L1 (Homo sapiens (Human), UniProt Q9NZQ7). Kind of assay: Homogeneous Time-Resolved Fluorescence (HTRF) PD-1/PD-L1 binding assay. The conditions noted are these: recombinant human PD-1 and PD-L1, 25° C., pH 7.4. Summed up: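 His-tagged PD-L1 (19-238, 10 nM) and Fc-tagged PD-1 (25-167, 3 nM) preincubated 40 min with inhibitors in PBS pH 7.4, 0.05% Tween-20, 0.1% BSA, 1% DMSO, 25 °C. Eu anti-IgG (1 nM) and anti-His-APC (20 nM) added, 60 min at 25 °C; 665/620 nm ratio fitted for IC50.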
In general terms: In TR-FRET formats the signal depends on donor and acceptor labels being close together.

In assay [2] the test system is U2OS/PD-L1 cells and Jurkat-PD-1-SHP cells. Nature of the assay: Src homology region 2 domain-containing phosphatase (SHP) assay. The class given is cell-based. The note with it: Homo sapiens; U2OS/PD-L1 cells with Jurkat-PD-1-SHP cells, 2 hours. As to the method: Example B. Src Homology Region 2 Domain-Containing Phosphatase (SHP) Assay
U2OS/PD-L1 cells (DiscoveRx Corporation) were maintained in McCoy's 5A medium with addition of 10% FBS, 0.25 μg/ml Puromycin. After removing the culture media, the cell medium was replaced with assay medium (RPMI1640 medium with 1% FBS). The U2OS/PD-L1 cells were then added in 384-well black clear bottom assay plate (CELLCOAT® Tissue Culture Plates, Greiner Bio-One) at 5000 cells per well in 20 μL assay medium. Test compounds were prepared by serial dilution in DMSO and 125 nL compound were first transferred to the 384 REMP plate well (Thermofisher) by ECHO liquid handler (Labcyte) followed with addition of 27.5 μL assay medium. 5 μL/well compounds in the assay medium were transferred to the cell plate with 0.05% DMSO in the final assay at 0.5 μM. Jurkat-PD-1-SHP cells (DiscoveRx Corporation) were cultured in RPMI1640 medium supplemented with 10% FBS, 250 μg/ml Hygromycin B, 500 μg/ml G418. After the replacement of culture media with assay medium, 5,000 Jurkat-PD-1-SHP cells in 20 μL were dispensed into each well. The assay plate was incubated at 37° C., 5% CO2 for 2 hours before 2.5 μL PathHunter reagent 1 (DiscoveRx Corporation) were added to each well. The assay plate was shaken for 1 min at 350 rpm in the dark followed with addition of 10 μL PathHunter reagent 2 (DiscoveRx Corporation). Chemiluminescent signal was recorded with TopCount reader (Perkin Elmer) after incubation at room temperature for 1 hour. Wells with DMSO were served as the positive controls and wells containing no cells were used as negative controls. IC50 determination was performed by fitting the curve of percentage of control activity versus the log of the compound concentration using the GraphPad Prism 6.0 software.

The target of the next assay is PD-L1 (Homo sapiens (Human), UniProt Q9NZQ7). Kind of assay: PD-L1 whole blood internalization assay. The class given is cell-based. The note with it: 1 ng/ml human interferon γ, PD-L1 expression on CD14+ cells, read-out: Whole Blood (24 HR) IC50. In a few lines:
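Normal human whole blood was exposed to a range of test compound concentrations together with 1 ng/ml human interferon γ, then stained for PD-L1 and CD14 for 30 minutes at room temperature in the dark. After red cell lysis/fixation and centrifugation, CD14+ cells were analyzed by flow cytometry for PD-L1 MFI, and IC50 values came from percent inhibition versus log concentration fits.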

Usually EC50 stands for the concentration needed to bring the measured effect to its halfway point. Low values mean a more potent agent, high ones a less potent agent. For orientation: IC50 means the point on the concentration scale where inhibition reaches its midpoint.

Molecules are shown by their SMILES.

Sequence of PD-1/PD-L1 (Q9NZQ7 19-238): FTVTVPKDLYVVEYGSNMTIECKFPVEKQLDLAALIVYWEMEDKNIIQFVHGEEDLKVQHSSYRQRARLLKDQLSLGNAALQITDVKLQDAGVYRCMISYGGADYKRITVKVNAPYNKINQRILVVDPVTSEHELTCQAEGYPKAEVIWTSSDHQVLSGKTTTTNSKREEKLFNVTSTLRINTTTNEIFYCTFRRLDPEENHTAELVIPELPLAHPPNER
Sequence of PD-L1 (Q9NZQ7 19-290): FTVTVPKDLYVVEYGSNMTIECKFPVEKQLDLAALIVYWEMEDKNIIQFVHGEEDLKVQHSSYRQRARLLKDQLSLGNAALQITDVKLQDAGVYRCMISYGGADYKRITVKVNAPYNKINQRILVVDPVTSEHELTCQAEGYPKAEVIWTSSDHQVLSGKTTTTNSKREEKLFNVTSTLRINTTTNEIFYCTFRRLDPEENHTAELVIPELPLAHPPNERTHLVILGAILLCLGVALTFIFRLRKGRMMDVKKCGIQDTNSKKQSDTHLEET

Regarding `Cc1nc(Nc2cccc(-c3cccc(-c4nc5cc(CN6CC[C@@](C)(C(=O)O)C6)cc(C#N)c5o4)c3C)c2C)c2ncc(CN3CC[C@@](C)(O)C3)cc2n1` [Example 12, (R)-1-((7-cyano-2-(3′-(7-(((R)-3-hydroxy-3-methylpyrrolidin-1-yl)methyl)-2-methylpyrido[3,2-d]pyrimidin-4-ylamino)-2,2′-dimethylbiphenyl-3-yl)benzo[d]oxazol-5-yl)methyl)-3-methylpyrrolidine-3-carboxylic Acid], the EC50 in assay [1] is 10 to 100 nM. Also, the IC50 at PD-1/PD-L1 is not above 10 nM; in assay [2], not above 10 nM; on PD-L1 it was 10 to 100 nM.

`Cc1nc(Nc2cccc(-c3cccc(-c4nc5cc(CN6CC[C@@](C)(C(=O)O)C6)cc(C#N)c5o4)c3C)c2C)c2ncc(CN[C@@H](C)CO)cc2n1` [Example 14, (R)-1-((7-cyano-2-(3′-(7-(((S)-1-hydroxypropan-2-ylamino)methyl)-2-methylpyrido[3,2-d]pyrimidin-4-ylamino)-2,2′-dimethylbiphenyl-3-yl)benzo[d]oxazol-5-yl)methyl)-3-methylpyrrolidine-3-carboxylic Acid]: the EC50 in assay [1] lay within 10 to 100 nM. Also, the IC50 is not above 10 nM at PD-1/PD-L1, not above 10 nM in assay [2] and 10 to 100 nM at PD-L1.

Compound `Cc1c(Nc2nc(C(F)F)nc3cc(CN4CC[C@@H](O)C4)cnc23)cccc1-c1cccc(-c2nc3cc(CN4CC[C@@](C)(C(=O)O)C4)cc(C#N)c3o2)c1C` [Example 18, (R)-1-((7-cyano-2-(3′-(2-(difluoromethyl)-7-(((R)-3-hydroxypyrrolidin-1-yl)methyl)pyrido[3,2-d]pyrimidin-4-ylamino)-2,2′-dimethylbiphenyl-3-yl)benzo[d]oxazol-5-yl)methyl)-3-methylpyrrolidine-3-carboxylic Acid] returned an EC50 in assay [1] of 10 to 100 nM. Also, the IC50 on PD-1/PD-L1 is not above 10 nM; in assay [2], not above 10 nM; at PD-L1, 10 to 100 nM.

For `Cc1nc(Nc2cccc(-c3cccc(-c4nc5cc(CN6CC[C@@H](C(=O)O)C6)cc(C#N)c5o4)c3C)c2C)c2ncc(CN3CC[C@@H](O)C3)cc2n1` [Example 6, (R)-1-((7-cyano-2-(3′-(7-(((R)-3-hydroxypyrrolidin-1-yl)methyl)-2-methylpyrido[3,2-d]pyrimidin-4-ylamino)-2,2′-dimethylbiphenyl-3-yl)benzo[d]oxazol-5-yl)methyl)pyrrolidine-3-carboxylic Acid], the EC50 in assay [1] is 10 to 100 nM. In addition, the results for the IC50 (at PD-1/PD-L1; in assay [2]; on PD-L1) were not above 10 nM, not above 10 nM and 10 to 100 nM, respectively.

`Cc1c(Nc2nc(N)nc3cc(CN4CC[C@@H](O)C4)cnc23)cccc1-c1cccc(-c2nc3cc(CN4CCC(C(=O)O)CC4)cc(C#N)c3o2)c1C` [Example 29, (R)-1-((2-(3′-(2-amino-7-((3-hydroxypyrrolidin-1-yl)methyl)pyrido[3,2-d]pyrimidin-4-ylamino)-2,2′-dimethylbiphenyl-3-yl)-7-cyanobenzo[d]oxazol-5-yl)methyl)piperidine-4-carboxylic Acid] registered an EC50 in assay [1] of 10 to 100 nM. The IC50 was not above 10 nM on PD-1/PD-L1, not above 10 nM in assay [2] and 10 to 100 nM on PD-L1.

Compound `Cc1nc(Nc2cccc(-c3cccc(-c4nc5cc(CN6CCC(C(=O)O)CC6)cc(C#N)c5o4)c3C)c2C)c2ncc(CNC[C@H](C)O)cc2n1` [Example 5, (S)-1-((7-cyano-2-(3′-(7-((2-hydroxypropylamino)methyl)-2-methylpyrido[3,2-d]pyrimidin-4-ylamino)-2,2′-dimethylbiphenyl-3-yl)benzo[d]oxazol-5-yl)methyl)piperidine-4-carboxylic Acid] came in with an EC50 in assay [1] of 10 to 100 nM. Moreover, the results for the IC50 (at PD-1/PD-L1; in assay [2]; at PD-L1) were not above 10 nM, 10 to 100 nM and 100 to 500 nM, respectively.
